Common to all, as to assay type: cell-based
One assay deals with IL29. Put plainly: IL29 cytokine activation in human PBMC (MSD assay). The settings on record: Homo sapiens, PBMC, 24 h. As to the method:
(§1) The other below tests involving measuring the in vitro activity of some compounds of the disclosure on cytokines IFN-α2a, IL-6, IL29 and TNF-α were carried out using human PBMC (PBMCs).
(§2) The activity described below, with respect to TLR7, TLR8, IFN-α2a, IL-6, IL29 and TNF-α, is given by the half maximal effective concentration (EC50), which corresponds to the concentration required to obtain a 50% of the activation. The lower the EC50, the less the concentration of the compound is required to produce 50% of maximum activation and the higher the potency.
(§3) In Vitro Assay to Determine IFN-α2a, IL-6, IL29 and TNF-α Cytokine Activation:
(§4) Peripheral blood mononuclear cells were isolated by Ficoll density gradient centrifugation from peripheral blood samples obtained from healthy donors (EFS). Isolated PBMCs are washed twice with PBS and resuspended in RPMI-1640 medium supplement with 10% fetal bovine serum (FBS) at 5.10^5 cells/well in a 96-well plate. The cells were then incubated with the compounds to test at various doses (20 μM to 4.8.10-6 μM final) for 24 h at 37° C., 5% CO2. After 24 h treatment, the plates are centrifuged and the supernatant were collected and assayed for cytokines IFN-α2a, IL-6, IL29 and TNF-α using the Meso Scale Discovery (MSD) assay platform according to the manufacturer's instructions. Briefly, 25 μL of cell culture supernatants were incubated for 1 h at Room Temperature (RT) in custom Multi-Spot 96-well plates prior coated with capture antibodies. After washing, SULFO-TAG® labeled detection antibodies were added to each of the wells and incubated for 1 h RT before adding a read buffer.

The test system of the next assay is TNF-α. In words: TNF-α cytokine activation in human PBMC (MSD assay). The following applies: Homo sapiens, PBMC, 24 h. As to the method: as §1, §2, §3, §4
The subject of another assay is IL-6. In words: IL-6 cytokine activation in human PBMC (MSD assay). The following applies: Homo sapiens, PBMC, 24 h, read-out: IL6 EC50. As to the method:
as §1, §2, §3, §4

The subject of another assay is IFN-α2a. In words: IFN-α2a cytokine activation in human PBMC (MSD assay). The following applies: Homo sapiens, PBMC, 24 h. As to the method: as §1, §2, §3, §4
The target of a further assay is T1, human TLR7 (Homo sapiens, UniProt Q9NYK1).
T1 construct: host or cells: HEK293 (HEK-Blue hTLR7)
T1 sequence (Q9NYK1 27-1049): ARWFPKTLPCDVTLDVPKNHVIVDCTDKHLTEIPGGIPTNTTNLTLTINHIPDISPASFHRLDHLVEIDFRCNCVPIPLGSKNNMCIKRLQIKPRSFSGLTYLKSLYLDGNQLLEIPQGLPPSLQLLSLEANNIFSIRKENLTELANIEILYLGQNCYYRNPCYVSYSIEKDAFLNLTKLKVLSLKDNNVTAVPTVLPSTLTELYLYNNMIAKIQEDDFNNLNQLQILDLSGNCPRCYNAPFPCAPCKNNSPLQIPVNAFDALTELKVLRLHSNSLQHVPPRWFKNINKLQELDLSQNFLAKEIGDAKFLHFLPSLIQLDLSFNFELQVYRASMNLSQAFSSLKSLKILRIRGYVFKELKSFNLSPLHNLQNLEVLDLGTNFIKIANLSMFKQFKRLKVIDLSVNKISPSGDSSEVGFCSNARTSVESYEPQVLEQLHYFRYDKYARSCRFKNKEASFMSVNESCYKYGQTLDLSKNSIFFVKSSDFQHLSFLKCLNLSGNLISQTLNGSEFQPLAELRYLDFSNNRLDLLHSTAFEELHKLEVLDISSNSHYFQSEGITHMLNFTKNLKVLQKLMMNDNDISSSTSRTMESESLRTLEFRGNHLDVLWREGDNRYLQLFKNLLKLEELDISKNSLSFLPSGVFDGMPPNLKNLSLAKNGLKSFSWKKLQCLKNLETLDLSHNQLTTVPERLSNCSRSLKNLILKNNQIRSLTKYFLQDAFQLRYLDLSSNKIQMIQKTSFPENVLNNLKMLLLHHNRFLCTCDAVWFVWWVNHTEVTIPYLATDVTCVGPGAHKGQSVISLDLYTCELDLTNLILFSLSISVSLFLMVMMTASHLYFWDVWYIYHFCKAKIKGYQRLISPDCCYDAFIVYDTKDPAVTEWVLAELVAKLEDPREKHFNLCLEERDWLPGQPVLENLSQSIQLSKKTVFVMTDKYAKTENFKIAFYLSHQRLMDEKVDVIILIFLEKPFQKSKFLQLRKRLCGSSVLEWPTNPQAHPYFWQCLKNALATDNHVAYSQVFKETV
In words: HEK-Blue hTLR7 reporter cell assay (SEAP, NF-kB/AP-1) for stimulation of human TLR7. The settings on record: HEK-Blue hTLR7 cells, 24 h incubation, SEAP readout; read-out: TLR7_EC50. The gist of the method:
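Activity expressed as EC50 for half-maximal SEAP induction. Compounds, serially diluted 3-fold from 20 to 0.01 μM, were incubated 24 h at 37 °C, 5% CO2 with HEK-Blue hTLR7 reporter cells (3.10E4/well, plated 18–24 h earlier); supernatant developed with QUANTI-Blue.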

For the compound `CCCCc1nc2c(N)nnc(N(C)Cc3ccc(CN(C)C)cc3)c2n1C` [Compound 43, 2-butyl-N7-(4-((dimethylamino)methyl)benzyl)-N7,1-dimethyl-1H-imidazo[4,5-d]pyridazine-4,7-diamine], the EC50 with IL29 amounted to 0.015 µM; in the assay with TNF-α it was 0.021 µM; with IL-6 it was 0.003 µM; in the assay on IFN-α2a, 0.022 µM.
`CCCCc1nc2c(N)nnc(OC(C)C)c2n1C[C@H]1CC[C@H](CN)CC1` [Compound 20]: the EC50 in the assay on IL29 turned out to be 0.0003 µM; on human TLR7, 0.028 µM; in the assay on TNF-α, 2.4 µM; in the assay on IL-6, 0.083 µM; with IFN-α2a, 0.0003 µM.

These data come from patent US12583861B2, “Derivatives of imidazo[4,5-d]pyridazine, their preparation and their therapeutic application” (SANOFI, priority 2021, dated 2026).
